Measured values published in patent US6020342A, “Fused imidazo[1,2-A]pyridines” (Shinnippon Pharmaceutical, Inc., priority 1995, dated 2000).

Tested on: gastric acid secretion
Test: Inhibition of Gastric Acid Secretion Observed Under Stomach Perfusion Method
Type: in vivo, male Sprague Dawrey rats
Conditions: Rattus norvegicus, ip, 1 h; rats, histamine i.v. 8 mg/kg/hr, inhibition one hour after administration (1-10 mg/kg, "intrapenetorially"); read-out: ID50 (dose showing 50% inhibition of acid secretion)
Description: Inhibition of Gastric Acid Secretion Observed Under Stomach Perfusion Method
Male Sprague Dawrey rats (6-7weeks) fasted for 24 hours were used (water ad libitum). The rats were anesthetized by intraperitoneal administration of 1.25 g/kg of urethane. The abdomen was incised, and gastral cavity was perfused with saline during experiment. The perfusate was titrated by 10 mM sodium hydroxide up to pH5.5 using an autotitrator in accordance with Stat-method. Gastric acid secretion was stimulated by intravenous administration of histamine dihydrochloride (8 mg/kg/hr). Two hours after histamine stimulation, a test compound 1-10 mg/kg) was administered intrapenetorially. The test compound was mixed with small amount of polysorbate-80, and the mixture was suspended in saline. The test compound was evaluated using ID50 (dose showing 50% inhibition of acid secretion) which was calculated based on inhibition of the acid secretion observed one hour after administration of the compound.

Q: With Cc1ccc2ccn3c(N)c(-c4ccccc4C)nc3c2c1 [Compound 10, 3-Amino-9-methyl-2-(2-methylphenyl)imidazo[2,1-a]isoquinoline] as the compound, how does the ED50 read?
A: 4.2 mg/kg

Q: CCCc1cc2ccccc2c2nc(-c3ccccc3C)c(N)n12 [Compound 12] was tested. Which ED50 did it give?
A: 7.2 mg/kg

Q: How did the ED50 turn out when COc1cn2c(N)c(-c3ccccc3C)nc2c2ccccc12 [Compound 24, 3-Amino-6-methoxy-2-(2-methylphenyl)imidazo[2,1-a]isoquinoline] was run?
A: 5.4 mg/kg

Q: With Cc1ccccc1-c1nc2c3cc(OC(=O)C(C)C)ccc3ccn2c1N [Compound 43, 3-Amino-9-isobutyryloxy-2-(2-methylphenyl)imidazo[2,1-a]isoquinoline] as the compound, how does the ED50 read?
A: 7 mg/kg

Q: With COc1ccc2cc(C)n3c(N)c(-c4ccccc4C)nc3c2c1 [Compound 56, 3-Amino-9-methoxy-5-methyl-2-(2-methylphenyl)imidazo[2,1-a]isoquinoline] as the compound, how does the ED50 read?
A: 6.5 mg/kg

Q: How did the ED50 turn out when Cc1sccc1-c1nc2c3ccccc3ccn2c1N [Compound 78, 3-Amino-2-(2-methyl-3-thienyl)imidazo[2,1-a]isoquinoline] was run?
A: 1.6 mg/kg

Q: Which ED50 does the source give for Cn1cccc1-c1nc2c3ccccc3ccn2c1N [Compound 94, 3-Amino-2-(1-methyl-2-pyrrolyl)imidazo[2,1-a]isoquinoline] here?
A: 5.8 mg/kg

Q: With Cc1ccccc1-c1nc2n(c1N)CCc1ccccc1-2 [Compound 96, 3-Amino-2-(2-methylphenyl)-5,6-dihydroimidazo[2,1-a]isoquinoline] as the compound, how does the ED50 read?
A: 8.8 mg/kg

Q: Which ED50 does the source give for COc1ccc2c(c1)-c1nc(-c3ccccc3C)c(N)n1CC2 [Compound 103, 3-Amino-9-methoxy-2-(2-methylphenyl)-5,6-dihydroimidazo[2,1-a]isoquinoline] here?
A: 7.4 mg/kg

Q: With Cc1cc2sccc2c2nc(-c3ccccc3)c(N)n12 [Compound 230, 3-Amino-5-methyl-2-phenylimidazo[1,2-a]thieno[3,2-c]pyridine] as the compound, how does the ED50 read?
A: 6.2 mg/kg

Q: With Nc1c(-c2ccccc2Cl)nc2c3ccsc3ccn12 [Compound 232, 3-Amino-2-(2-chlorophenyl)imidazo[1,2-a]thieno[3,2-c]pyridine] as the compound, how does the ED50 read?
A: 3.2 mg/kg

Target: T1, H^+ /K^+ -ATPase (Sus scrofa, UniProt P19156)
T1 construct: a microsome fraction prepared from porcine gastric mucosa was used as a standard enzyme; from tissue; host or cells: porcine gastric mucosa, microsome fraction
Test: Inhibitory Action on H^+ /K^+ -ATPase Activity
Type: biochemical
Conditions: microsome fraction from porcine gastric mucosa, pH7.4, 37° C., 30 min preincubation, 15 min reaction
Description: Inhibitory Action on H^+ /K^+ -ATPase Activity
According to the method of Hongo et al. [The Japanese Journal of Pharmacology, 52, p295, (1990)], a microsome fraction prepared from porcine gastric mucosa was used as a standard enzyme. The standard enzyme (10-20lig protein) and the test compound (0.1-100 μM) dissolved in dimethylsulfoxide was incubated at 37° C. for 30 minutes in the 50 mM Tris-acetate buffer (pH7.4, containing 2 mM magnesium chloride, 5 mM potassium chloride). The enzyme reaction was started by adding adenosinetriphosphate (ATP). Tris at the final concentration of 2 mM, and the reaction was kept at 37° C. for 15 minutes. The reaction was stopped by adding chilled 10% trichloroacetic acid. Inorganic phosphate released during the reaction was calorimetrically determined according to the method of Fiske-Subbarow [The Journal of Biological Chemistry, 66, p375, (1925)]. H^+ /K^+ -ATPase activity was determined by the difference of the enzyme activities under the conditions with or without potassium chloride. The inhibitory activities of test compounds were determined as the 50% inhibitory concentration (IC50 value) from reaction-concentration curve, and the results are shown in Table 3.

T1 sequence (P19156 2-1034 limits assumed): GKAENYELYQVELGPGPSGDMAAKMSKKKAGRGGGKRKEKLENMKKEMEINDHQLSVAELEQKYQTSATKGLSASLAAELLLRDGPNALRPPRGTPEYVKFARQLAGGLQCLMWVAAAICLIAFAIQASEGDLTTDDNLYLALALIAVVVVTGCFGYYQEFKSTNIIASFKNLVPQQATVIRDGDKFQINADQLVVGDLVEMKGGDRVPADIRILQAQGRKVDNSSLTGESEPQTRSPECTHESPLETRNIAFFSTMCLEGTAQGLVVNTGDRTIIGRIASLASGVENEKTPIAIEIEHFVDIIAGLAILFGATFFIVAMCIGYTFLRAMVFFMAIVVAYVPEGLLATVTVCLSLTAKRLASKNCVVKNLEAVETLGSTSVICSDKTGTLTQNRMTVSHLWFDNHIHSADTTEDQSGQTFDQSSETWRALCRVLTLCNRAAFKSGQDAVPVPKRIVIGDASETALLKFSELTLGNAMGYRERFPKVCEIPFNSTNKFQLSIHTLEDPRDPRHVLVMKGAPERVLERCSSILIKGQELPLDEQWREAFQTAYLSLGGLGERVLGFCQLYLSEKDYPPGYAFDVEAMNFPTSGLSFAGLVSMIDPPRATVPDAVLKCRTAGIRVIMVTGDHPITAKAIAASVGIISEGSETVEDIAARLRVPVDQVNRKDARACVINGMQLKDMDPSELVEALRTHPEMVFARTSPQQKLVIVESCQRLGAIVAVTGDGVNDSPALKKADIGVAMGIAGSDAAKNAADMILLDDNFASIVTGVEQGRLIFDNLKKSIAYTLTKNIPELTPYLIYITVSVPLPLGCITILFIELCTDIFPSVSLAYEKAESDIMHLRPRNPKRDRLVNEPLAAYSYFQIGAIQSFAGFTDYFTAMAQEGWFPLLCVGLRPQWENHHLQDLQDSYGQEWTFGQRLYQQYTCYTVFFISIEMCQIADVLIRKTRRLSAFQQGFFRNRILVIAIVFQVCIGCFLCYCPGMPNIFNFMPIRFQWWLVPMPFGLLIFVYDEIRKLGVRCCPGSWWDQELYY
T1 sequence (P18434 whole entry partner): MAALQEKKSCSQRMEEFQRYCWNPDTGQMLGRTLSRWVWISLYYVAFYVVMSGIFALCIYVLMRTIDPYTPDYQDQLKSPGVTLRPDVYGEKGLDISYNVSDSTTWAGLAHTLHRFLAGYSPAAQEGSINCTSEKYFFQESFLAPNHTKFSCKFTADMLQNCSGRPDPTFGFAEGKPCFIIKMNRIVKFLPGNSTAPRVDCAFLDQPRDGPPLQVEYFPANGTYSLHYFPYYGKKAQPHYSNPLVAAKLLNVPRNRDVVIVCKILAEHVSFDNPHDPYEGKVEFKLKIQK

Q: Which IC50 does the source give for Cc1ccc2ccn3c(N)c(-c4ccccc4C)nc3c2c1 [Compound 10, 3-Amino-9-methyl-2-(2-methylphenyl)imidazo[2,1-a]isoquinoline] here?
A: 20 µM

Q: How did the IC50 turn out when CCCc1cc2ccccc2c2nc(-c3ccccc3C)c(N)n12 [Compound 12] was run?
A: 12.5 µM

Q: Cc1ccccc1-c1nc2c3ccccc3c(CCC(C)C)cn2c1N [Compound 15, 3-Amino-6-isopentyl-2-(2-methylphenyl)imidazo[2,1-a]isoquinoline] was tested. Which IC50 did it give?
A: 3.7 µM

Q: With COc1ccc(-c2cn3c(N)c(-c4ccccc4C)nc3c3ccccc23)cc1 [Compound 21, 3-Amino-6-(4-methoxyphenyl)-2-(2-methylphenyl)imidazo[2,1-a]isoquinoline] as the compound, how does the IC50 read?
A: 7.4 µM

Q: For Cc1ccccc1-c1nc2c3cc(O)ccc3ccn2c1N [Compound 22, 3-Amino-9-hydroxy-2-(2-methylphenyl)imidazo[2,1-a]isoquinoline], which IC50 is on record?
A: 1.9 µM

Q: COc1cn2c(N)c(-c3ccccc3C)nc2c2ccccc12 [Compound 24, 3-Amino-6-methoxy-2-(2-methylphenyl)imidazo[2,1-a]isoquinoline] was tested. Which IC50 did it give?
A: 13.5 µM

Q: How did the IC50 turn out when Cc1ccccc1-c1nc2c3ccccc3c(OCc3ccccc3)cn2c1N [Compound 38, 3-Amino-6-benzyloxy-2-(2-methylphenyl)imidazo[2,1-a]isoquinoline] was run?
A: 4.8 µM

Q: Which IC50 does the source give for CCN(CC)c1cccc2c1ccn1c(N)c(-c3ccccc3C)nc21 [Compound 54, 3-Amino-7-diethylamino-2-(2-methylphenyl)imidazo[2,1-a]isoquinoline] here?
A: 1 µM

Q: For Cc1sccc1-c1nc2c3ccccc3ccn2c1N [Compound 78, 3-Amino-2-(2-methyl-3-thienyl)imidazo[2,1-a]isoquinoline], which IC50 is on record?
A: 17 µM

Q: For Cc1cc(-c2nc3c4ccccc4ccn3c2N)c(C)s1 [Compound 83, 3-Amino-2-(2,5-dimethyl-3-thienyl)imidazo[2,1-a]isoquinoline], which IC50 is on record?
A: 5.6 µM

Q: Which IC50 does the source give for Cn1cccc1-c1nc2c3ccccc3ccn2c1N [Compound 94, 3-Amino-2-(1-methyl-2-pyrrolyl)imidazo[2,1-a]isoquinoline] here?
A: 3 µM

Q: Which IC50 does the source give for Cc1ccccc1-c1nc2n(c1N)CCc1ccccc1-2 [Compound 96, 3-Amino-2-(2-methylphenyl)-5,6-dihydroimidazo[2,1-a]isoquinoline] here?
A: 17.5 µM

Q: Cc1ccccc1-c1nc2n(c1N)C(C)(C)Cc1ccccc1-2 [Compound 104, 3-Amino-5,5-dimethyl-2-(2-methylphenyl)-5,6-dihydroimidazo[2,1-a]isoquinoline] was tested. Which IC50 did it give?
A: 12 µM

Q: Cc1cc(O)ccc1-c1nc2n(c1N)CCc1ccccc1-2 [Compound 107, 3-Amino-2-(4-hydroxy-2-methylphenyl)-5,6-dihydroimidazo[2,1-a]isoquinoline] was tested. Which IC50 did it give?
A: 33 µM

Q: With CC(=O)N(Cc1ccc(C)cc1)c1c(-c2ccccc2C)nc2c3ccccc3ccn12 [Compound 151, 3-[N-Acetyl-N-(4-methylbenzyl)amino]-2-(2-methylphenyl)imidazo[2,1-a]isoquinoline] as the compound, how does the IC50 read?
A: 7.8 µM

Q: CCCc1cccc2c1ccn1c(NCC)c(-c3ccccc3C)nc21 [Compound 163, 3-Ethylamino-2-(2-methylphenyl)-7-propylimidazo[2,1-a]isoquinoline] was tested. Which IC50 did it give?
A: 4.6 µM

Q: Which IC50 does the source give for CCNc1c(-c2ccccc2C)nc2c3cccc(OCc4ccccc4)c3ccn12 [Compound 169, 7-Benzyloxy-3-ethylamino-2-(2-methylphenyl)imidazo[2,1-a]isoquinoline] here?
A: 5.8 µM

Q: How did the IC50 turn out when Cc1ccc(-c2nc3c4ccccc4ccn3c2NCCC(C)C)c(C)c1 [Compound 189, 3-Isopentylamino-2-(2,4-dimethylphenyl)imidazo[2,1-a]isoquinoline] was run?
A: 6.8 µM

Q: How did the IC50 turn out when CCCCCCNc1c(-c2ccccc2C)nc2c3ccccc3ccn12 [Compound 191, 3-Hexylamino-2-(2-methylphenyl)imidazo[2,1-a]isoquinoline] was run?
A: 5.2 µM

Q: For Cc1ccccc1-c1nc2c3ccccc3ccn2c1NC(C)c1ccccc1 (stereo not shown) [Compound 192, 2-(2-Methylphenyl)-3-[(1-phenylethyl)amino]imidazo[2,1-a]isoquinoline], which IC50 is on record?
A: 4.4 µM

Q: How did the IC50 turn out when Cc1ccccc1-c1nc2c3ccccc3ccn2c1NCc1ccc2ccccc2c1Br [Compound 195] was run?
A: 8.8 µM

Q: For CCN(CC)c1c(-c2ccccc2C)nc2c3cccc(Br)c3ccn12 [Compound 200, 7-Bromo-3-diethylamino-2-(2-methylphenyl)imidazo[2,1-a]isoquinoline], which IC50 is on record?
A: 1.2 µM

Q: Which IC50 does the source give for CCN(CCCl)c1c(-c2ccccc2C)nc2c3ccccc3ccn12 [Compound 202, 3-[N-(2-Chloroethyl)-N-ethylamino]-2-(2-methylphenyl)imidazo[2,1-a]isoquinoline] here?
A: 9.8 µM

Q: CCCN(CC)c1c(-c2ccccc2F)nc2c3ccccc3ccn12 [Compound 206, 3-(N-Ethyl-N-propylamino)-2-(2-fluorophenyl)imidazo[2,1-a]isoquinoline] was tested. Which IC50 did it give?
A: 2.3 µM

Q: With CCCN(CC)c1c(-c2cccc(C)c2)nc2c3ccccc3ccn12 [Compound 211, 3-(N-Ethyl-N-propylamino)-2-(3-methylphenyl)imidazo[2,1-a]isoquinoline] as the compound, how does the IC50 read?
A: 2.4 µM

Q: Which IC50 does the source give for CCN(Cc1ccc(C)cc1)c1c(-c2ccccc2C)nc2c3ccccc3ccn12 [Compound 219, 3-[N-Ethyl-N-(4-methylbenzyl)amino]-2-(2-methylphenyl)imidazo[2,1-a]isoquinoline] here?
A: 3.6 µM

Q: Which IC50 does the source give for CCc1ccccc1-c1nc2c3ccccc3ccn2c1N=Cc1ccc(C)cc1 [Compound 226, 2-(2-Ethylphenyl)-3-(4-methylbenzylideneamino)imidazo[2,1-a]isoquinoline] here?
A: 1.9 µM

Q: How did the IC50 turn out when Cc1cc2sccc2c2nc(-c3ccccc3)c(N)n12 [Compound 230, 3-Amino-5-methyl-2-phenylimidazo[1,2-a]thieno[3,2-c]pyridine] was run?
A: 20 µM

Q: For Nc1c(-c2ccccc2Cl)nc2c3ccsc3ccn12 [Compound 232, 3-Amino-2-(2-chlorophenyl)imidazo[1,2-a]thieno[3,2-c]pyridine], which IC50 is on record?
A: 17 µM

Q: Which IC50 does the source give for CCc1cc2sccc2c2nc(-c3ccccc3C)c(N)n12 [Compound 238, 3-Amino-5-ethyl-2-(2-methylphenyl)imidazo[1,2-a]thieno[3,2-c]pyridine] here?
A: 2.9 µM

Q: How did the IC50 turn out when Cc1ccccc1-c1nc2c3ccsc3c(C)c(C)n2c1N [Compound 239, 3-Amino-5,6-dimethyl-2-(2-methylphenyl)imidazo[1,2-a]thieno[3,2-c]pyridine] was run?
A: 26 µM

Q: Which IC50 does the source give for COc1ccccc1-c1nc2c3ccsc3cc(C)n2c1N [Compound 245, 3-Amino-2-(2-methoxyphenyl)-5-methylimidazo[1,2-a]thieno[3,2-c]pyridine] here?
A: 9 µM

Q: Which IC50 does the source give for Cc1cc(Cl)ccc1-c1nc2c3ccsc3cc(C)n2c1N [Compound 248, 3-Amino-2-(4-chloro-2-methylphenyl)-5-methylimidazo[1,2-a]thieno[3,2-c]pyridine] here?
A: 4.7 µM

Q: For Cc1cc(-c2nc3c4ccsc4ccn3c2N)c(C)s1 [Compound 264, 3-Amino-2-(2,5-dimethyl-3-thienyl)imidazo[1,2-a]thieno[3,2-c]pyridine], which IC50 is on record?
A: 1.2 µM

Q: With Cn1cccc1-c1nc2c3ccsc3ccn2c1N [Compound 275] as the compound, how does the IC50 read?
A: 24 µM

Q: How did the IC50 turn out when Cc1ccccc1-c1nc2c3ccn(Cc4ccccc4)c3ccn2c1N [Compound 292, 3-Amino-7-benzyl-2-(2-methylphenyl)imidazo[1,2-a]pyrrolo[3,2-c]pyridine] was run?
A: 8.8 µM

Q: Cc1ccccc1-c1nc2c3sccc3cc(C)n2c1N [Compound 311, 3-Amino-5-methyl-2-(2-methylphenyl)imidazo[1,2-a]thieno[2,3-c]pyridine] was tested. Which IC50 did it give?
A: 8 µM

Q: Which IC50 does the source give for CCCN(CC)c1c(-c2ccccc2C)nc2c3sccc3ccn12 [Compound 356, 3-(N-Ethyl-N-propylamino)-2-(2-methylphenyl)imidazo[1,2-a]thieno[2,3-c]pyridine] here?
A: 8.4 µM
